# Where “and” joins values, the source holds several entries; their conditions need not be identical. Identical values can stand only once.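 Step 1: Grow cells in 96-well plates. Step 2: Expose to compound for 48 hours at 5 concentrations. Step 3: Interpolate endpoints linearly; if unreached, use highest concentration. At the GI50, growth is halved. Definition used: TGI = concentration required for complete inhibition of growth.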
# Key:
# Test in all cases: NCI-60 cell line screen, 48 h
# A498 renal = system: A498 renal
# EKVX NSCLC = system: EKVX NSCLC
# HL-60(TB) leukemia = system: HL-60(TB) leukemia
# IGROV1 ovarian = system: IGROV1 ovarian
# KM12 colon = system: KM12 colon
# MDA-MB-231 breast = system: MDA-MB-231 breast
# SN12C renal = system: SN12C renal
# SW-620 colon = system: SW-620 colon
# K-562 leukemia = system: K-562 leukemia
# MOLT-4 leukemia = system: MOLT-4 leukemia
SMILES,GI50 (A498 renal),TGI (A498 renal),GI50 (EKVX NSCLC),GI50 (HL-60(TB) leukemia),GI50 (IGROV1 ovarian),GI50 (KM12 colon),TGI (MDA-MB-231 breast),GI50 (SN12C renal),GI50 (SW-620 colon),TGI (EKVX NSCLC),TGI (HL-60(TB) leukemia),TGI (IGROV1 ovarian),GI50 (K-562 leukemia),TGI (K-562 leukemia),TGI (KM12 colon),GI50 (MDA-MB-231 breast),GI50 (MOLT-4 leukemia),TGI (MOLT-4 leukemia),TGI (SN12C renal),TGI (SW-620 colon)
COC(=O)C12OCC34C(CC5C(C)=CC(=O)C(O)C5(C)C3C(O)C1O)OC(=O)C(OC(=O)CC(C)C)C24 (stereo not given),< 0.0575 µM,0.00627 µM and < 0.0791 µM,0.0612 µM,< 0.0417 µM and 0.05 µM,< 0.0288 µM and 0.05 µM,0.0511 µM and 0.05 µM,0.0247 µM,0.0829 µM and 0.05 µM,0.042 µM and 0.05 µM,–,–,–,–,–,–,–,–,–,–,–
O=C(Nc1cc(Cl)cc(Cl)c1)c1ccc(NC2=C(Cl)C(=O)N(Cc3ccccc3)C2=O)cc1,8.06 µM,22.2 µM,13.9 µM,1.55 µM,1.57 µM,6.43 µM,22.4 µM,6.83 µM,–,28.7 µM,4.43 µM,3.32 µM,2.31 µM,6.93 µM,26.2 µM,5.74 µM,1.51 µM,4.91 µM,22.6 µM,–
COc1cc2c(/C=C3/C(=O)Nc4c3ccc3ccccc43)c(Cl)[nH]c2cc1C,> 50 µM,> 50 µM,0.222 µM,0.0115 µM,0.0125 µM,0.0124 µM,–,0.071 µM,0.0781 µM,> 36.3 µM,0.661 µM,–,< 0.005 µM,0.58 µM,–,0.0366 µM,–,–,> 19.6 µM,> 50 µM
COC(=O)/C(Br)=C/c1c[nH]c2ccc(Br)cc12,7.98 µM,20.9 µM,12.3 µM,61.3 µM,–,12.6 µM,30.4 µM,18.4 µM,14.7 µM,29.7 µM,> 100 µM,–,> 100 µM,> 100 µM,27 µM,11.2 µM,10.6 µM,> 100 µM,43.3 µM,27.8 µM
CC(=O)/C=C/c1ccc(N(C)Cc2ccc(C(C)(C)C)cc2)cc1,124 µM,251 µM,84.4 µM,69.1 µM,241 µM,115 µM,293 µM,141 µM,156 µM,392 µM,277 µM,–,–,–,317 µM,122 µM,116 µM,425 µM,300 µM,441 µM
CCC1=C[C@H]2CN(CCc3c([nH]c4ccccc34)[C@@](C(=O)OC)(c3cc4c(cc3OC)N(C)[C@H]3[C@@](O)(C(=O)OC)[C@H](OC(C)=O)[C@]5(CC)[C@@H]6C[C@@H]6CN6CC[C@]43[C@@H]65)C2)C1,0.035 µM,0.183 µM,0.0966 µM,0.0265 µM,0.144 µM,0.0313 µM,1.88 µM,0.0932 µM,0.0428 µM,> 25 µM,0.14 µM,6.77 µM,–,–,3.8 µM,0.0864 µM,0.0737 µM,> 25 µM,4.99 µM,3.89 µM
CCNCCNc1cc(C2CCCC2)c(C#N)c2nc3ccccc3n12,2.67 µM,8.32 µM,4.73 µM,2.01 µM,3.5 µM,4.64 µM,5.27 µM,3.61 µM,2.82 µM,21.5 µM,4.3 µM,16 µM,2.49 µM,5.81 µM,16.6 µM,2.37 µM,–,–,12.9 µM,13.2 µM
Cn1cc(-c2nc(-c3cn(C)c4ncccc34)cs2)c2cc(F)ccc21,1.91 µM,31.3 µM,1.93 µM,1.67 µM,–,0.61 µM,22.2 µM,3.63 µM,1.23 µM,74.3 µM,88.7 µM,–,0.358 µM,> 100 µM,14.6 µM,3.01 µM,3.17 µM,> 100 µM,> 100 µM,> 100 µM
NNc1nc(-c2ccccn2)nc2sc3c(c12)CCCCCC3,1.86 µM,11.8 µM,–,4.46 µM,4.21 µM,6.46 µM,> 100 µM,6.36 µM,4.53 µM,–,36.3 µM,> 100 µM,3.78 µM,> 100 µM,99 µM,12.7 µM,3.67 µM,22.7 µM,> 100 µM,> 100 µM
C#Cc1ccc(-n2c(/C=C/c3ccc4ccccc4n3)nc3ncccc3c2=O)cc1,0.138 µM,0.615 µM,–,0.297 µM,0.428 µM,0.359 µM,1.65 µM,0.469 µM,0.387 µM,–,0.851 µM,1.58 µM,0.33 µM,> 100 µM,1.26 µM,0.544 µM,0.456 µM,> 100 µM,2.03 µM,1.52 µM
O=C(O)c1cn(C2CC2)c2cc(N3CCN(C(=O)Nc4nc(-c5ccc(Cl)cc5)cs4)CC3)c(F)cc2c1=O,1.47 µM,9.46 µM,2.97 µM,1.47 µM,0.815 µM,2.15 µM,> 100 µM,3.53 µM,4.7 µM,> 100 µM,4.76 µM,> 100 µM,2.24 µM,> 100 µM,> 100 µM,3.63 µM,–,–,> 100 µM,> 100 µM

# From PubChem BioAssay (NCI)
